These are literature values, as cited in patent US9181529B2, “Titration of differentiation medium components” (Cellular Dynamics International, Inc., priority 2010, dated 2015).

Structures are written as SMILES.

For one data set, the system named is ROCK2. To be noted: ATP-competitive, read-out: IC50 ROCK1/ROCK2.
The test system of data set [1] is pluripotent stem cell-derived cardiomyocytes.

Take `C[C@@H](N)[C@H]1CC[C@H](C(=O)Nc2ccncc2)CC1` [Y-27632]: the IC50 with ROCK2 is […].

Turning to `COc1ccc([C@@H]2Sc3ccccc3N(CCN(C)C)C(=O)[C@@H]2OC(C)=O)cc1` [diltiazem], the contractile activity result in data set [1] was “inhibits contractile activity in a dose-dependent manner”.

For `CC(C)NCC(O)c1ccc(O)c(O)c1` (stereo not shown) [isoprenaline], the chronotropic effect entry in data set [1] is listed as “positive chronotropic effect”.

With `CNC[C@H](O)c1cccc(O)c1` [phenylephrine], in data set [1], the chronotropic effect entry is recorded as “positive chronotropic effect”.
